Measured values as given in patent US10941157B2, “Pesticidal compositions and uses thereof” (Gilead Apollo, LLC, priority 2015, dated 2021).
Values after ≈ are worked out from the molar mass of the structure shown. Like-named read-outs stand apart in the source and are kept apart here.

What was measured:
Format in all cases: cell-based
[1] = system: Botrtyis cinerea (Bc); assay: In vitro pathogen growth inhibition assay, Bc; conditions: 48 h
Outline: (§1)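 Spores in 17% V8 liquid medium, or 1.5 mm Rs mycelial plugs in ¼ PDB, incubated with compound; final concentration checked by OD600 for precipitation. OD readings at 24 and 48 h, blank-subtracted, plus visual ratings; value is concentration giving ≥90% growth inhibition.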

[2] = system: Collectotrichum graminicola (Cg); assay: In vitro pathogen growth inhibition assay, Cg; conditions: 48 h
Outline: as §1

[3] = system: Diplodia maydis (Dm); assay: In vitro pathogen growth inhibition assay, Dm; conditions: Stenocarpella maydis, 48 h
Outline: as §1

[4] = system: Fusarium moniliforme (Fm); assay: In vitro pathogen growth inhibition assay, Fm; conditions: Fusarium verticillioides
Outline: as §1

[5] = system: Fusarium virguliforme (Fv); assay: In vitro pathogen growth inhibition assay, Fv
Outline: as §1

[6] = system: Phytophthora capsici (Pc); assay: In vitro pathogen growth inhibition assay, Pc; conditions: 48 h
Outline: as §1

[7] = system: Rhizoctonia solani (Rs); assay: In vitro pathogen growth inhibition assay, Rs (mycelial plugs); conditions: Rhizoctonia solani, 48 h
Outline: as §1

[8] = system: Septoria tritici (St); assay: In vitro pathogen growth inhibition assay, St; conditions: Zymoseptoria tritici, 48 h
Outline: as §1

[9] = ≥90% growth inhibition, 48 hours, vs 2% DMSO control, read-out: Compound Concentration (ppm) sufficient for ≥90% inhibition of Bc
[10] = ≥90% growth inhibition, 48 hours, vs 2% DMSO control, read-out: Compound Concentration (ppm) sufficient for ≥90% inhibition of Cg
[11] = ≥90% growth inhibition, 48 hours, vs 2% DMSO control, read-out: Compound Concentration (ppm) sufficient for ≥90% inhibition of Dm
[12] = ≥90% growth inhibition, 48 hours, vs 2% DMSO control, read-out: Compound Concentration (ppm) sufficient for ≥90% inhibition of Fm
[13] = ≥90% growth inhibition, 48 hours, vs 2% DMSO control, read-out: Compound Concentration (ppm) sufficient for ≥90% inhibition of Fv
[14] = ≥90% growth inhibition, 48 hours, vs 2% DMSO control, read-out: Compound Concentration (ppm) sufficient for ≥90% inhibition of Pc
[15] = ≥90% growth inhibition, mycelial plugs, 48 hours, vs 2% DMSO control, read-out: Compound Concentration (ppm) sufficient for ≥90% inhibition of Rs
[16] = ≥90% growth inhibition, 48 hours, vs 2% DMSO control, read-out: Compound Concentration (ppm) sufficient for ≥90% inhibition of St
[17] = ≥90% inhibition, 48 hours vs 2% DMSO control, read-out: Compound Concentration (ppm) sufficient for ≥90% inhibition of growth, Bc
[18] = ≥90% inhibition, 48 hours vs 2% DMSO control, read-out: Compound Concentration (ppm) sufficient for ≥90% inhibition of growth, Cg
[19] = ≥90% inhibition, 48 hours vs 2% DMSO control, read-out: Compound Concentration (ppm) sufficient for ≥90% inhibition of growth, Dm
[20] = ≥90% inhibition, 48 hours vs 2% DMSO control, read-out: Compound Concentration (ppm) sufficient for ≥90% inhibition of growth, Fm
[21] = ≥90% inhibition, 48 hours vs 2% DMSO control, read-out: Compound Concentration (ppm) sufficient for ≥90% inhibition of growth, Fv
[22] = ≥90% inhibition, 48 hours vs 2% DMSO control, read-out: Compound Concentration (ppm) sufficient for ≥90% inhibition of growth, Pc
[23] = ≥90% inhibition, mycelial plugs, 48 hours vs 2% DMSO control, read-out: Compound Concentration (ppm) sufficient for ≥90% inhibition of growth, Rs
[24] = ≥90% inhibition, 48 hours vs 2% DMSO control, read-out: Compound Concentration (ppm) sufficient for ≥90% inhibition of growth, St
[25] = concentration sufficient to ≥90% inhibition of growth, 48 hours vs 2% DMSO control, read-out: Compound Concentration (ppm) for ≥90% inhibition, Bc
[26] = concentration sufficient to ≥90% inhibition of growth, 48 hours vs 2% DMSO control, read-out: Compound Concentration (ppm) for ≥90% inhibition, Cg
[27] = concentration sufficient to ≥90% inhibition of growth, 48 hours vs 2% DMSO control, read-out: Compound Concentration (ppm) for ≥90% inhibition, Dm
[28] = concentration sufficient to ≥90% inhibition of growth, 48 hours vs 2% DMSO control, read-out: Compound Concentration (ppm) for ≥90% inhibition, Fm
[29] = concentration sufficient to ≥90% inhibition of growth, 48 hours vs 2% DMSO control, read-out: Compound Concentration (ppm) for ≥90% inhibition, Fv
[30] = concentration sufficient to ≥90% inhibition of growth, 48 hours vs 2% DMSO control, read-out: Compound Concentration (ppm) for ≥90% inhibition, Pc
[31] = concentration sufficient to ≥90% inhibition of growth, 48 hours vs 2% DMSO control, read-out: Compound Concentration (ppm) for ≥90% inhibition, Rs
[32] = concentration sufficient to ≥90% inhibition of growth, 48 hours vs 2% DMSO control, read-out: Compound Concentration (ppm) for ≥90% inhibition, St

Row | IC90 [1, 9] [µg/mL] | IC90 [2, 10] [µg/mL] | IC90 [3, 11] [µg/mL] | IC90 [4, 12] [µg/mL] | IC90 [5, 13] [µg/mL] | IC90 [6, 14] [µg/mL] | IC90 [7, 15] [µg/mL] | IC90 [8, 16] [µg/mL] | IC90 [1, 17] [µg/mL] | IC90 [2, 18] [µg/mL] | IC90 [3, 19] [µg/mL] | IC90 [4, 20] [µg/mL] | IC90 [5, 21] [µg/mL] | IC90 [6, 22] [µg/mL] | IC90 [7, 23] [µg/mL] | IC90 [8, 24] [µg/mL] | Compound | other results
1 | 2 (≈ 3.63 µM) | 50 (≈ 90.6 µM) | ≥ 10 | 0.08 (≈ 0.145 µM) | 10 (≈ 18.1 µM) | > 50 | 0.08 (≈ 0.145 µM) | > 50 | – | – | – | – | – | – | – | – | CNC(=O)C(C)(C)n1c(=O)c2c(C)c(-n3nccn3)sc2n(C[C@H](OCCC#N)c2ccccc2OC)c1=O [Compound I-209] | –
2 | – | – | – | – | – | – | – | – | 2 (≈ 3.18 µM) | 2 (≈ 3.18 µM) | 2 (≈ 3.18 µM) | 0.08 (≈ 0.127 µM) | 0.4 (≈ 0.636 µM) | > 50 | 0.4 (≈ 0.636 µM) | ≥ 50 | COCCCO[C@@H](Cn1c(=O)n(C(C)(C)C(=O)N2CCCC2)c(=O)c2c(C)c(-n3nccn3)sc21)c1cc(F)ccc1OC [Compound I-083] | –
3 | – | – | – | – | – | – | – | – | 2 (≈ 3.42 µM) | 2 (≈ 3.42 µM) | 2 (≈ 3.42 µM) | 0.08 (≈ 0.137 µM) | 0.4 (≈ 0.684 µM) | > 50 | 0.4 (≈ 0.684 µM) | > 50 | C=CCO[C@@H](Cn1c(=O)n(C(C)(C)C(=O)NC(C)C)c(=O)c2c(C)c(-n3nccn3)sc21)c1cc(F)ccc1OC [Compound I-077] | –
4 | 2 (≈ 3.36 µM) | 10 (≈ 16.8 µM) | ≥ 2 | 0.4 (≈ 0.672 µM) | ≥ 0.4 | > 50 | 0.08 (≈ 0.134 µM) | > 50 | – | – | – | – | – | – | – | – | COc1ccc(F)cc1[C@H](Cn1c(=O)n([C@@H](C)C(=O)N2CCCC2)c(=O)c2c(C)c(-n3nccn3)sc21)OCCC#N [Compound I-201] | –
5 | – | – | – | – | – | – | – | – | 0.4 (≈ 0.655 µM) | ≥ 2 | ≥ 2 | 0.08 (≈ 0.131 µM) | 0.4 (≈ 0.655 µM) | 50 (≈ 81.9 µM) | 0.4 (≈ 0.655 µM) | > 10 | COc1ccccc1[C@H](Cn1c(=O)n(C(C)(C)C(=O)NC(C)C)c(=O)c2c(C)c(-n3nccn3)sc21)OC1CCOCC1 [Compound I-029] | –

The next lines start with the compound.

Row | Compound | IC90 [1, 9] [µg/mL] | IC90 [2, 10] [µg/mL] | IC90 [3, 11] [µg/mL] | IC90 [4, 12] [µg/mL] | IC90 [5, 13] [µg/mL] | IC90 [6, 14] [µg/mL] | IC90 [7, 15] [µg/mL] | IC90 [8, 16] [µg/mL] | IC90 [1, 17] [µg/mL] | IC90 [2, 18] [µg/mL] | IC90 [3, 19] [µg/mL] | IC90 [4, 20] [µg/mL] | IC90 [5, 21] [µg/mL] | IC90 [6, 22] [µg/mL] | IC90 [7, 23] [µg/mL] | IC90 [8, 24] [µg/mL] | other results
6 | COc1ccccc1[C@H](Cn1c(=O)n(C(C)(C)C(=O)NC2CCC2)c(=O)c2c(C)c(-n3nccn3)sc21)OC1CCOCC1 [Compound I-042] | – | – | – | – | – | – | – | – | 0.4 (≈ 0.642 µM) | ≥ 0.4 | ≥ 0.4 | 0.08 (≈ 0.128 µM) | 0.4 (≈ 0.642 µM) | ≥ 10 | 0.08 (≈ 0.128 µM) | ≥ 10 | –
7 | CCNC(=O)[C@H](C)n1c(=O)c2c(C)c(-n3cccn3)sc2n(C[C@H](OCCC#N)c2cc(F)ccc2OC)c1=O [Compound I-306] | – | – | – | – | – | – | – | – | – | – | – | – | – | – | – | – | IC90 [1, 25]: 50 µg/mL (≈ 87.9 µM); IC90 [2, 26]: > 50 µg/mL; IC90 [3, 27]: > 50 µg/mL; IC90 [4, 28]: 10 µg/mL (≈ 17.6 µM); IC90 [5, 29]: > 50 µg/mL; IC90 [6, 30]: > 50 µg/mL; IC90 [7, 31]: > 50 µg/mL; IC90 [8, 32]: > 50 µg/mL
8 | COc1ccc(F)cc1[C@H](Cn1c(=O)n(C(C)(C)C(=O)NC(C)C)c(=O)c2c(C)c(-n3cccn3)sc21)OC[C@@H](C)O [Compound I-134] | – | – | – | – | – | – | – | – | 2 (≈ 3.32 µM) | 0.4 (≈ 0.665 µM) | ≥ 2 | 0.4 (≈ 0.665 µM) | 2 (≈ 3.32 µM) | ≥ 10 | ≥ 0.4 | ≥ 10 | –
9 | Cc1c(-n2cccn2)sc2c1c(=O)n(C(C)(C)C(=O)NC(C)C)c(=O)n2CCc1cc(F)ccc1OCCC#N [Compound I-336] | – | – | – | – | – | – | – | – | – | – | – | – | – | – | – | – | IC90 [1, 25]: 50 µg/mL (≈ 88.2 µM); IC90 [2, 26]: > 50 µg/mL; IC90 [3, 27]: > 50 µg/mL; IC90 [4, 28]: 10 µg/mL (≈ 17.6 µM); IC90 [5, 29]: 10 µg/mL (≈ 17.6 µM); IC90 [6, 30]: > 50 µg/mL; IC90 [7, 31]: > 50 µg/mL; IC90 [8, 32]: > 50 µg/mL
10 | COCCO[C@@H](Cn1c(=O)n(C(C)(C)C(=O)NC2CCCCC2)c(=O)c2c(C)c(-n3cccn3)sc21)c1cc(F)ccc1OC [Compound I-293] | 10 (≈ 15.6 µM) | > 50 | > 50 | 2 (≈ 3.12 µM) | 50 (≈ 77.9 µM) | > 50 | > 50 | > 50 | – | – | – | – | – | – | – | – | –
